Converted amounts (≈) assume the structure as drawn. One block for each molecule: values may come before it. The source made the active and inactive calls. The calls are words filed in the database; no cut-off is given here.
Columns and labels:
[1] = Inhibition of Escherichia coli beta-lactamase VIM-2 using nitrocefin chromogenic substrate measured after 15 to 60 min at 25 degC by microplate reader
Enterobacter cloacae [2] = assay: Inhibition of Metallo-beta-lactamase IMP-1 in Enterobacter cloacae clinical isolate assessed as fold reduction in meropenem MIC at 32 ug/ml; conditions: dose 32.0 µg/ml
Escherichia coli [3] = assay: Inhibition of Metallo-beta-lactamase NDM-1 in Escherichia coli clinical isolate assessed as MIC for meropenem antibacterial activity at 64 ug/ml (reference value: 64 ug/ml); conditions: dose 64.0 µg/ml
Klebsiella pneumoniae [4] = assay: Substrate activity at Klebsiella pneumoniae beta-lactamase IMP-28 assessed as compound hydrolysis by measuring Kcat/Km by Michaelis-Menten analysis
Enterobacter cloacae [5] = assay: Inhibition of Metallo-beta-lactamase IMP-1 in Enterobacter cloacae clinical isolate assessed as fold reduction in meropenem MIC at 64 ug/ml; conditions: dose 64.0 µg/ml
Klebsiella pneumoniae [6] = assay: Inhibition of Metallo-beta-lactamase IMP-28 in Klebsiella pneumoniae clinical isolate assessed as MIC for meropenem antibacterial activity at 64 ug/ml (reference value: 4 ug/ml); conditions: dose 64.0 µg/ml
Escherichia coli [7] = assay: Antibacterial activity against beta-lactamase NDM1 producing Escherichia coli clinical isolate measured upto 128 ug/ml; assay type: functional, organism-based
Escherichia coli [8] = assay: Inhibition of Metallo-beta-lactamase NDM-1 in Escherichia coli clinical isolate assessed as MIC for meropenem antibacterial activity at 32 ug/ml (reference value: 64 ug/ml); conditions: dose 32.0 µg/ml
Enterobacter cloacae [9] = assay: Inhibition of Metallo-beta-lactamase IMP-1 in Enterobacter cloacae clinical isolate assessed as MIC for meropenem antibacterial activity at 128 ug/ml (Rvb =16 ug/ml); conditions: dose 128.0 µg/ml
Klebsiella pneumoniae [10] = assay: Inhibition of Metallo-beta-lactamase IMP-28 in Klebsiella pneumoniae clinical isolate assessed as MIC for meropenem antibacterial activity at 32 ug/ml (reference value: 4 ug/ml); conditions: dose 32.0 µg/ml
[11] = Inhibition of Enterobacter cloacae IMP-1 using nitrocefin chromogenic substrate measured after 15 to 60 min at 25 degC by microplate reader
Escherichia coli [12] = assay: Inhibition of Metallo-beta-lactamase NDM-1 in Escherichia coli clinical isolate assessed as MIC for meropenem antibacterial activity at 128 ug/ml (reference value: 64 ug/ml); conditions: dose 128.0 µg/ml
Escherichia coli [13] = assay: Inhibition of Metallo-beta-lactamase VIM-2 in Escherichia coli clinical isolate assessed as fold reduction in meropenem MIC at 32 ug/ml; conditions: dose 32.0 µg/ml
Klebsiella pneumoniae [14] = assay: Inhibition of Metallo-beta-lactamase IMP-28 in Klebsiella pneumoniae clinical isolate assessed as fold reduction in meropenem MIC at 32 ug/ml; conditions: dose 32.0 µg/ml
Enterobacter cloacae [15] = assay: Inhibition of Metallo-beta-lactamase IMP-1 in Enterobacter cloacae clinical isolate assessed as fold reduction in meropenem MIC at 128 ug/ml; conditions: dose 128.0 µg/ml
[16] = Inhibition of Klebsiella pneumoniae beta-lactamase IMP-28 using nitrocefin chromogenic substrate measured after 15 to 60 min at 25 degC by microplate reader
Klebsiella pneumoniae [17] = assay: Antibacterial activity against beta-lactamase IMP-28 producing Klebsiella pneumoniae clinical isolate measured upto 128 ug/ml; assay type: functional, organism-based
Escherichia coli [18] = assay: Inhibition of Metallo-beta-lactamase VIM-2 in Escherichia coli clinical isolate assessed as MIC for meropenem antibacterial activity at 128 ug/ml (reference value: 8 ug/ml); conditions: dose 128.0 µg/ml
Enterobacter cloacae [19] = assay: Inhibition of Metallo-beta-lactamase IMP-1 in Enterobacter cloacae clinical isolate assessed as MIC for meropenem antibacterial activity at 32 ug/ml (Rvb =16 ug/ml); conditions: dose 32.0 µg/ml
Klebsiella pneumoniae [20] = assay: Substrate activity at Klebsiella pneumoniae beta-lactamase IMP-28 assessed as compound hydrolysis by measuring Km by Michaelis-Menten analysis
Escherichia coli [21] = assay: Inhibition of Metallo-beta-lactamase VIM-2 in Escherichia coli clinical isolate assessed as MIC for meropenem antibacterial activity at 64 ug/ml (reference value: 8 ug/ml); conditions: dose 64.0 µg/ml
Klebsiella pneumoniae [22] = assay: Inhibition of Metallo-beta-lactamase IMP-28 in Klebsiella pneumoniae clinical isolate assessed as fold reduction in meropenem MIC at 128 ug/ml; conditions: dose 128.0 µg/ml
Escherichia coli [23] = assay: Antibacterial activity against beta-lactamase VIM2 producing Escherichia coli clinical isolate measured upto 128 ug/ml; assay type: functional, organism-based
Enterobacter cloacae [24] = assay: Inhibition of Metallo-beta-lactamase IMP-1 in Enterobacter cloacae clinical isolate assessed as MIC for meropenem antibacterial activity at 64 ug/ml (Rvb =16 ug/ml); conditions: dose 64.0 µg/ml
Klebsiella pneumoniae [25] = assay: Inhibition of Metallo-beta-lactamase IMP-28 in Klebsiella pneumoniae clinical isolate assessed as fold reduction in meropenem MIC at 64 ug/ml; conditions: dose 64.0 µg/ml
Escherichia coli [26] = assay: Inhibition of Metallo-beta-lactamase NDM-1 in Escherichia coli clinical isolate assessed as fold reduction in meropenem MIC at 32 ug/ml; conditions: dose 32.0 µg/ml
Escherichia coli [27] = assay: Inhibition of Metallo-beta-lactamase NDM-1 in Escherichia coli clinical isolate assessed as fold reduction in meropenem MIC at 128 ug/ml; conditions: dose 128.0 µg/ml
Klebsiella pneumoniae [28] = assay: Inhibition of Metallo-beta-lactamase IMP-28 in Klebsiella pneumoniae clinical isolate assessed as MIC for meropenem antibacterial activity at 128 ug/ml (reference value: 4 ug/ml); conditions: dose 128.0 µg/ml
Escherichia coli [29] = assay: Inhibition of Metallo-beta-lactamase VIM-2 in Escherichia coli clinical isolate assessed as fold reduction in meropenem MIC at 128 ug/ml; conditions: dose 128.0 µg/ml
Klebsiella pneumoniae [30] = assay: Substrate activity at Klebsiella pneumoniae beta-lactamase IMP-28 assessed as compound hydrolysis by measuring Kcat by Michaelis-Menten analysis
Escherichia coli [31] = assay: Inhibition of Metallo-beta-lactamase NDM-1 in Escherichia coli clinical isolate assessed as fold reduction in meropenem MIC at 64 ug/ml; conditions: dose 64.0 µg/ml
Enterobacter cloacae [32] = assay: Antibacterial activity against beta-lactamase IMP1 producing Enterobacter cloacae clinical isolate measured upto 128 ug/ml; assay type: functional, organism-based
Escherichia coli [33] = assay: Inhibition of Metallo-beta-lactamase VIM-2 in Escherichia coli clinical isolate assessed as MIC for meropenem antibacterial activity at 32 ug/ml (reference value: 8 ug/ml); conditions: dose 32.0 µg/ml
Escherichia coli [34] = assay: Inhibition of Metallo-beta-lactamase VIM-2 in Escherichia coli clinical isolate assessed as fold reduction in meropenem MIC at 64 ug/ml; conditions: dose 64.0 µg/ml
[35] = Binding affinity to Zinc incubated for 2 hrs measured by isothermal titration calorimetric assay
Enterobacter cloacae [36] = assay: Inhibition of Enterobacter cloacae Metallo-beta-lactamase IMP-1
Klebsiella pneumoniae [37] = assay: Inhibition of Klebsiella pneumoniae beta Metallo-beta-lactamase IMP-28

Compound: O=C(Cc1ccccc1)N[C@@H]1C(=O)N2C(C(=O)O)=C(CSCCc3ccccc3)CS[C@H]12
IC50 [1]: 49 µM
fold change (FC) (Enterobacter cloacae [2]): 2
MIC (Escherichia coli [3]): 16 µg/mL (≈ 34.1 µM)
kcat/Km (Klebsiella pneumoniae [4]): 0.073 µM⁻¹ s⁻¹
fold change (FC) (Enterobacter cloacae [5]): 2
MIC (Klebsiella pneumoniae [6]): 0.25 µg/mL (≈ 0.534 µM)
Activity (Escherichia coli [7]): inactive
MIC (Escherichia coli [8]): 32 µg/mL (≈ 68.3 µM)
MIC (Enterobacter cloacae [9]): 8 µg/mL (≈ 17.1 µM)
MIC (Klebsiella pneumoniae [10]): 0.5 µg/mL (≈ 1.07 µM)
IC50 [11]: 2200 nM
MIC (Escherichia coli [12]): 16 µg/mL (≈ 34.1 µM)
fold change (FC) (Escherichia coli [13]): 1
fold change (FC) (Klebsiella pneumoniae [14]): 8
fold change (FC) (Enterobacter cloacae [15]): 2
IC50 [16]: 4.3 µM
Activity (Klebsiella pneumoniae [17]): inactive
MIC (Escherichia coli [18]): 4 µg/mL (≈ 8.54 µM)
MIC (Enterobacter cloacae [19]): 8 µg/mL (≈ 17.1 µM)
Km (Klebsiella pneumoniae [20]): 83.3 µM
MIC (Escherichia coli [21]): 4 µg/mL (≈ 8.54 µM)
fold change (FC) (Klebsiella pneumoniae [22]): 16
Activity (Escherichia coli [23]): inactive
MIC (Enterobacter cloacae [24]): 8 µg/mL (≈ 17.1 µM)
fold change (FC) (Klebsiella pneumoniae [25]): 16
fold change (FC) (Escherichia coli [26]): 2
fold change (FC) (Escherichia coli [27]): 4
MIC (Klebsiella pneumoniae [28]): 0.25 µg/mL (≈ 0.534 µM)
fold change (FC) (Escherichia coli [29]): 2
kcat (Klebsiella pneumoniae [30]): 6.12 s⁻¹
fold change (FC) (Escherichia coli [31]): 4
Activity (Enterobacter cloacae [32]): inactive
MIC (Escherichia coli [33]): 8 µg/mL (≈ 17.1 µM)
fold change (FC) (Escherichia coli [34]): 2

Kd [35]: 3.19 µM
inhibition (Enterobacter cloacae [36]): Active
inhibition (Klebsiella pneumoniae [37]): Active
Compound: O=C(Cc1ccccc1)N[C@H](C(=O)O)[C@@H]1N=C(C(=O)O)C(CSC(Cc2ccccc2)C(=O)O)CS1 (stereo not given in full)

Kd [35]: 9.67 µM
inhibition (Enterobacter cloacae [36]): Active
inhibition (Klebsiella pneumoniae [37]): Active
Compound: O=C(Cc1ccccc1)N[C@H](C(=O)O)[C@@H]1N=C(C(=O)O)C(CSC(C(=O)O)c2ccccc2)CS1 (stereo not given in full)
